For 37 compounds, EC50 results are on record in US9120779B2, “Inhibitors of HCV NS5A” (PRESIDIO PHARMACEUTICALS, INC., priority 2008, dated 2015).

Structures are written as SMILES. Some results are limits rather than exact numbers.

For the first assay, the system named is HCV genotype 1b replicon in Huh 7 cells. As to the kind of experiment: HCV replicon assay (luciferase readout, 1b_Huh-Luc/Neo-ET cell line). It is filed as cell-based. Particulars: Hepatitis C virus, Huh-7, 72 h, read-out: Inhibition of HCV genotype 1b, Table 1, 72 h incubation. Put shortly:
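Inhibition expressed as percent of untreated control luciferase signal and fitted to a Hill-slope equation for EC50, with repeat determinations. Compounds were added in triplicate to Huh 7 cells stably expressing the genotype 1b luciferase replicon, with 72 h exposure.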
In general terms: A replicon is a self-replicating genome or part of one, used to study replication in cells.
Take `CC(C)(C)OC(=O)N[C@@H](C(=O)N1CCC[C@H]1c1ncc(-c2ccc(C3CCC(c4cnc([C@@H]5CCCN5C(=O)[C@H](NC(=O)OC(C)(C)C)c5ccccc5)[nH]4)CC3)cc2)[nH]1)c1ccccc1` (stereo partly shown) [compound 367]: the EC50 was below 1 nM.
On the same count and under the same terms, to `COC(=O)N[C@H](C(=O)N1CCC[C@H]1c1ncc(-c2ccc([C@H]3CC[C@H](c4cnc([C@@H]5CCCN5C(=O)[C@H](C(C)C)N(C)C)[nH]4)CC3)cc2)[nH]1)C(C)C` [compound 941] belongs below 1 nM; to `COC(=O)N[C@@H](C(=O)N1CCC[C@H]1c1ncc(-c2ccc(C3CCC(c4cnc([C@@H]5CCCN5C(=O)[C@@H](c5ccccc5)N(C)C)[nH]4)CC3)cc2)[nH]1)c1ccccc1` (stereo partly shown) [compound 376], below 1 nM.
Turning to `COC(=O)N[C@H](C(=O)N1CCC[C@H]1c1ncc(-c2ccc([C@H]3CC[C@H](c4cnc([C@@H]5CCCN5C(=O)[C@@H](c5ccccc5)N(C)C)[nH]4)CC3)cc2)[nH]1)C(C)C` [compound 940], the EC50 is below 1 nM.
With `O=C(N[C@@H](C(=O)N1CCC[C@H]1C(=O)N[C@H]1CC[C@@H](c2ccc(-c3cnc([C@@H]4CCCN4C(=O)[C@H](NC(=O)C4CC4)c4ccccc4)[nH]3)cc2)CC1)c1ccccc1)C1CC1` [compound 351], the EC50 is below 1 nM.
The same measure, in the same setting: as for `COC(=O)N[C@H](C(=O)N1CCC[C@H]1c1ncc(-c2ccc([C@H]3CC[C@H](c4cnc([C@@H]5CCCN5C(=O)[C@H](NC(=O)NC5CCOCC5)C(C)C)[nH]4)CC3)cc2)[nH]1)C(C)C` [compound 944], the figure is below 1 nM.
On the same count and under the same terms, as for `COC(=O)N[C@H](C(=O)N1CCC[C@H]1c1ncc(-c2ccc(C3CCC(c4cnc([C@@H]5CCCN5C(=O)[C@@H](NC(=O)OC)c5ccccc5)[nH]4)CC3)cc2)[nH]1)c1ccccc1` (stereo partly shown) [compound 374], the figure is below 1 nM; as for `COC(=O)N[C@H](C(=O)N1CCC[C@H]1c1ncc(-c2ccc([C@H]3CC[C@@H](c4cnc([C@@H]5CCCN5C(=O)[C@@H](NC(=O)OC)C(C)C)[nH]4)CC3)cc2)[nH]1)C(C)C` [compound 382], below 1 nM.

The same assay, now with this note: Hepatitis C virus, Huh-7, 72 h, read-out: Inhibition of HCV genotype 1b, Table 2, 72 h incubation.
Consider `COC(=O)N[C@@H](C(=O)N1CCC[C@H]1c1ncc(-c2ccc(-c3ccc4nc([C@@H]5CCCN5C(=O)[C@H](NC(=O)OC)c5ccccc5)[nH]c4c3)cc2)[nH]1)c1ccccc1` [compound 401], for which the EC50 was below 1 nM.
The same measure, in the same setting: to `CC(C)(C)OC(=O)N[C@@H](C(=O)N1CCC[C@H]1c1ncc(-c2ccc(-c3ccc4nc([C@@H]5CCCN5C(=O)[C@H](NC(=O)OC(C)(C)C)c5ccccc5)[nH]c4c3)cc2)[nH]1)c1ccccc1` [compound 400] belongs below 1 nM.

Staying with this assay, now noted: Hepatitis C virus, Huh-7, 72 h, read-out: Inhibition of HCV genotype 1b, Table 3, 72 h incubation.
For `COC(=O)N[C@@H](C(=O)N1CCOC[C@H]1c1ncc(-c2cc(F)c(N3CCC(c4cnc([C@@H]5CCCN5C(=O)[C@H](NC(=O)OC)c5ccccc5)[nH]4)CC3)c(F)c2)[nH]1)c1ccccc1` [compound 507], the EC50 is below 1 nM.
In the case of `COC(=O)N[C@H](C(=O)N[C@@H](C)c1ncc(C2CCN(c3c(F)cc(-c4cnc([C@@H]5CCCN5C(=O)[C@@H](NC(=O)OC)C(C)C)[nH]4)cc3F)CC2)[nH]1)C(C)C` [compound 512], the EC50 was below 1 nM.
With `O=C(N[C@@H](C(=O)N1CCC[C@H]1c1ncc(-c2cc(F)c(N3CCC(c4cnc([C@@H]5CCCCN5C(=O)[C@H](NC(=O)C5CC5)c5ccccc5)[nH]4)CC3)c(F)c2)[nH]1)c1ccccc1)C1CC1` [compound 484], the EC50 is below 1 nM.
Same read-out and setting: to `COC(=O)N[C@@H](C(=O)N1CCC[C@H]1c1ncc(-c2cc(F)c(N3CCC(c4cnc([C@@H]5CCCN5C(=O)[C@H](NC(=O)C5CC5)c5ccccc5)[nH]4)CC3)c(F)c2)[nH]1)c1ccccc1` [compound 461] belongs below 1 nM; to `COC(=O)N[C@@H](C(=O)N1CCOC[C@H]1c1ncc(C2CCN(c3c(F)cc(-c4cnc([C@@H]5CCCN5C(=O)[C@H](NC(=O)C5CC5)c5ccccc5)[nH]4)cc3F)CC2)[nH]1)c1ccccc1` [compound 502], below 1 nM.
On the same count and under the same terms, as for `COC(=O)N[C@@H](C(=O)N1CCC[C@H]1c1ncc(-c2cc(F)c(N3CCC(c4cnc([C@@H]5CCCN5C(=O)[C@H](NC(=O)OC)C(C)C)[nH]4)CC3)c(F)c2)[nH]1)C(C)C` [compound 498], the figure is 1 to 9.9 nM; as for `COC(=O)N[C@@H](C(=O)N[C@@H](C)c1ncc(-c2cc(F)c(N3CCC(c4cnc([C@@H]5CCCN5C(=O)[C@H](NC(=O)OC)c5ccccc5)[nH]4)CC3)c(F)c2)[nH]1)c1ccccc1` [compound 518], below 1 nM.

Staying with this assay, now noted: Hepatitis C virus, Huh-7, 72 h, read-out: Inhibition of HCV genotype 1b, Table 4, 72 h incubation.
Regarding `COC(=O)N[C@H](C(=O)N1CCC[C@H]1c1nc2ccc(-c3ccc(-c4ccc5nc([C@@H]6CCCN6C(=O)[C@@H](NC(=O)OC)C6CCOCC6)[nH]c5c4)cc3)cc2[nH]1)C(C)C` [compound 2040], the EC50 was below 1 nM.
On the same count and under the same terms, as for `COC(=O)N[C@@H](C(=O)N1CCC[C@H]1c1nc2ccc(-c3ccc(-c4ccc5nc([C@@H]6CCCN6C(=O)[C@H](NC(=O)OC)c6ccccc6)[nH]c5c4)cc3)cc2[nH]1)c1ccccc1` [compound 550], the figure is below 1 nM; as for `COC(=O)N[C@H](C(=O)N1CCC[C@H]1c1nc2ccc(-c3ccc(-c4ccc5nc([C@@H]6CCCN6C(=O)[C@@H](NC(=O)OC)[C@@H](C)O)[nH]c5c4)cc3)cc2[nH]1)[C@@H](C)O` [compound 557], below 1 nM.
On the same count and under the same terms, as for `COC(=O)N[C@H](C(=O)N[C@@H](C)c1nc2ccc(-c3ccc(-c4ccc5nc([C@@H]6CCCN6C(=O)[C@@H](C(C)C)N(C)C)[nH]c5c4)cc3)cc2[nH]1)C(C)C` [compound 938], the figure is below 1 nM.

The same assay, now with this note: Hepatitis C virus, Huh-7, 72 h, read-out: Inhibition of HCV genotype 1b, Table 5, 72 h incubation.
Take `COC(=O)N[C@@H](C(=O)N1CCC[C@H]1c1ncc(-c2ccc(C34CCC(c5cnc([C@@H]6CCCN6C(=O)[C@@H](c6ccccc6)N(C)C)[nH]5)(CC3)CC4)cc2)[nH]1)c1ccccc1` [compound 618]: the EC50 is below 1 nM.
Same read-out and setting: to `COC(=O)N[C@H](C(=O)N[C@@H](C)c1ncc(C23CCC(c4ccc(-c5cnc([C@@H]6CCCN6C(=O)[C@@H](NC(=O)OC)C(C)C)[nH]5)cc4)(CC2)CC3)[nH]1)C(C)C` [compound 2097] belongs below 1 nM; to `COC(=O)N[C@H](C(=O)N1CCC[C@H]1c1ncc(C23CCC(c4ccc(-c5cnc([C@@H]6CCCN6C(=O)[C@@H](NC6CCOCC6)C(C)C)[nH]5)cc4)(CC2)CC3)[nH]1)C(C)C` [compound 914], 10 to 999 nM; to `COC(=O)N[C@H](C(=O)N1CCC[C@H]1c1ncc(-c2ccc(C34CCC(c5cnc([C@@H]6CCCN6C(=O)[C@@H](NC(=O)OC6CCOCC6)c6ccccc6)[nH]5)(CC3)CC4)cc2)[nH]1)C(C)C` [compound 2107], below 1 nM.
Turning to `COC(=O)N[C@@H](C(=O)N1CCC[C@H]1c1ncc(C23CCC(c4ccc(-c5cnc([C@@H]6CCCN6C(=O)[C@H](NC(=O)OC)C(C)C)[nH]5)cc4)(CC2)CC3)[nH]1)c1ccccc1` [compound 621], the EC50 is below 1 nM.
Same read-out and setting: to `COC(=O)N[C@H](C(=O)N1CCC[C@H]1c1ncc(-c2ccc(C34CCC(c5cnc([C@@H]6CCCN6C(=O)[C@H](NC(=O)OC)c6ccccc6)[nH]5)(CC3)CC4)cc2)[nH]1)C(C)C` [compound 624] belongs below 1 nM.
Still for that read-out and setting: as for `COC(=O)N[C@H](C(=O)N1CCC[C@H]1c1ncc(-c2ccc(C34CCC(c5cnc([C@H](C)NC(=O)[C@H](NC(=O)OC)c6ccccc6)[nH]5)(CC3)CC4)cc2)[nH]1)C(C)C` [compound 2104], the figure is below 1 nM; as for `CC(C)[C@H](NC(=O)N1CC[C@@H](O)C1)C(=O)N1CCC[C@H]1c1ncc(-c2ccc(C34CCC(c5cnc([C@@H]6CCCN6C(=O)[C@@H](NC(=O)N6CC[C@@H](O)C6)C(C)C)[nH]5)(CC3)CC4)cc2)[nH]1` [compound 629], above 1000 nM.
Same read-out and setting: as for `COC(=O)N[C@H](C(=O)N1CCC[C@H]1c1ncc(-c2ccc(C34CCC(c5cnc([C@@H]6CCCN6C(=O)[C@@H](c6ccccc6)N6CCCCC6)[nH]5)(CC3)CC4)cc2)[nH]1)C(C)C` [compound 632], the figure is below 1 nM; as for `COC(=O)N[C@H](C(=O)N1CCC[C@H]1c1ncc(C23CCC(c4ccc(-c5cnc([C@@H]6CCCN6C(=O)[C@H](NC(=O)N6CCCCC6)C(C)C)[nH]5)cc4)(CC2)CC3)[nH]1)C(C)C` [compound 2075], below 1 nM; as for `CCN(CC)[C@@H](C(=O)N1CCC[C@H]1c1ncc(C23CCC(c4ccc(-c5cnc([C@@H]6CCCN6C(=O)[C@H](NC(=O)OC)c6ccccc6)[nH]5)cc4)(CC2)CC3)[nH]1)c1ccccc1` [compound 619], below 1 nM.
Take `COC(=O)N[C@H](C(=O)N1CCC[C@H]1c1ncc(C23CCC(c4ccc(-c5cnc([C@@H]6CCCN6C(=O)[C@H](NC6CCOCC6)c6ccccc6)[nH]5)cc4)(CC2)CC3)[nH]1)C(C)C` [compound 2068]: the EC50 is below 1 nM.
The same measure, in the same setting: to `COC(=O)N[C@H](C(=O)N1CCC[C@H]1c1ncc(-c2ccc(C34CCC(c5cnc([C@@H]6CCCN6C(=O)[C@@H](NC6CCOCC6)C(C)C)[nH]5)(CC3)CC4)cc2)[nH]1)C(C)C` [compound 2054] belongs 1 to 9.9 nM; to `COC(=O)N[C@H](C(=O)N1CCC[C@H]1c1ncc(C23CCC(c4ccc(-c5cnc([C@@H]6CCCN6C(=O)[C@@H](NC(=O)N6CCC(O)CC6)C(C)C)[nH]5)cc4)(CC2)CC3)[nH]1)C(C)C` [compound 649], below 1 nM; to `COC(=O)N[C@H](C(=O)N1CCC[C@H]1c1ncc(C23CCC(c4ccc(-c5cnc([C@@H]6CCCN6C(=O)[C@H](C(C)C)N(C)C)[nH]5)cc4)(CC2)CC3)[nH]1)C(C)C` [compound 2077], below 1 nM.

Staying with this assay, now noted: Hepatitis C virus, Huh-7, 72 h, read-out: Inhibition of HCV genotype 1b, Table 7, 72 h incubation.
Regarding `COC(=O)N[C@@H](C(=O)N1CCC[C@H]1c1cnc(N2CCN(c3ccc(-c4cnc([C@@H]5CCCN5C(=O)[C@H](NC(=O)OC)c5ccccc5)[nH]4)cc3)C(=O)C2)[nH]1)c1ccccc1` [compound 2113], the EC50 was below 1 nM.
